Key:
[1] = test system: WT N. gonorrhoeae topoisomerase IV; test: Topoisomerase IV-catalyzed DNA decatenation assay, WT; format: biochemical, Neisseria gonorrhoeae; settings: decatenation IC50 vs supercoiling IC50, WT enzymes
Procedure: (§1) All proteins were His-tagged. N. gonorrhoeae WT gyrase (GyrA, GyrB) and topoisomerase IV (ParC, ParE) subunits as well as mutant GyrA^D90N, GyrA^A92T, GyrA^S91F, and GyrA^S91F/D95G gyrase and ParC^D86N and ParC^S88P topoisomerase IV were prepared as described previously. , N. gonorrhoeae mutant GyrA^D95G gyrase and mutant ParC^S87N and ParC^E91G topoisomerase IV were generated using a QuickChange II XL site-directed mutagenesis kit (Agilent Technologies) with custom primers for the desired mutations. Mutant N. gonorrhoeae GyrA and ParC subunits were expressed and purified as described by Ashley et al. with the following modifications to optimize protein expression and lysis: (1) GyrA^D95G was expressed for 2.5 h and ParC^S87N and ParC^E91G were expressed for 3 h before harvesting, and (2) cells were lysed by sonication using a digital sonifier (Branson). The identities of all constructs were confirmed by DNA sequencing, and all enzymes were stored at −80 °C. In all assays, N. gonorrhoeae gyrase or topoisomerase IV was used as a 1:1 GyrA:GyrB or ParC:ParE mixture, respectively, and the stated enzyme concentration reflects that of the holoenzyme (A2B2). […]

[2] = biological target: T1, N. gonorrhoeae gyrase GyrA^D95G (Neisseria gonorrhoeae, UniProt P48371, D95G); test: DNA cleavage assay, GyrA^D95G gyrase; format: biochemical
T1 construct: His; made in house
Procedure: (§2) Some experiments replaced MgCl2 with an equivalent concentration of CaCl2 (10 mM), or 1.5 mM ATP was added to assay mixtures.
(§3) Reactions were incubated at 37 °C for 30 min with WT and mutant (GyrA^D90N, GyrA^A92T, GyrA^S91F, GyrA^D95G, or GyrA^S91F/D95G) N. gonorrhoeae gyrase, 10 min with WT N. gonorrhoeae topoisomerase IV, and 20 min with mutant (ParC^D86N, ParC^S88P, ParC^S87N, or ParC^E91G) N. gonorrhoeae topoisomerase IV. Enzyme-DNA cleavage complexes were trapped by adding 2 μL of 5% SDS followed by 2 μL of 250 mM EDTA (pH 8.0). Proteinase K was added (2 μL of a 0.8 mg/mL solution), and reaction mixtures were incubated at 45 °C for 30 min to digest the enzyme. Samples were mixed with 2 μL of loading buffer and heated at 45 °C for 2 min prior to electrophoresis in 1% agarose gels in 40 mM Tris-acetate (pH 8.3), and 2 mM EDTA containing 0.5 μg/mL ethidium bromide. DNA bands were visualized by midrange ultraviolet light and quantified using an Alpha Innotech digital imaging system (Protein Simple). Single-stranded DNA cleavage was monitored by the conversion of negatively supercoiled to nicked plasmid molecules.

[3] = biological target: T2, N. gonorrhoeae gyrase GyrA^S91F/D95G (Neisseria gonorrhoeae, UniProt P48371, D95G/S91F); test: DNA cleavage assay, GyrA^S91F/D95G gyrase; format: biochemical
T2 construct: His; made in house
Procedure: as §2, §3

[4] = biological target: T3, WT N. gonorrhoeae topoisomerase IV (Neisseria gonorrhoeae, UniProt P48374); test: Topoisomerase IV-catalyzed DNA decatenation assay, WT; format: biochemical; design: His; made in house
T3 sequence (P48374 1-768): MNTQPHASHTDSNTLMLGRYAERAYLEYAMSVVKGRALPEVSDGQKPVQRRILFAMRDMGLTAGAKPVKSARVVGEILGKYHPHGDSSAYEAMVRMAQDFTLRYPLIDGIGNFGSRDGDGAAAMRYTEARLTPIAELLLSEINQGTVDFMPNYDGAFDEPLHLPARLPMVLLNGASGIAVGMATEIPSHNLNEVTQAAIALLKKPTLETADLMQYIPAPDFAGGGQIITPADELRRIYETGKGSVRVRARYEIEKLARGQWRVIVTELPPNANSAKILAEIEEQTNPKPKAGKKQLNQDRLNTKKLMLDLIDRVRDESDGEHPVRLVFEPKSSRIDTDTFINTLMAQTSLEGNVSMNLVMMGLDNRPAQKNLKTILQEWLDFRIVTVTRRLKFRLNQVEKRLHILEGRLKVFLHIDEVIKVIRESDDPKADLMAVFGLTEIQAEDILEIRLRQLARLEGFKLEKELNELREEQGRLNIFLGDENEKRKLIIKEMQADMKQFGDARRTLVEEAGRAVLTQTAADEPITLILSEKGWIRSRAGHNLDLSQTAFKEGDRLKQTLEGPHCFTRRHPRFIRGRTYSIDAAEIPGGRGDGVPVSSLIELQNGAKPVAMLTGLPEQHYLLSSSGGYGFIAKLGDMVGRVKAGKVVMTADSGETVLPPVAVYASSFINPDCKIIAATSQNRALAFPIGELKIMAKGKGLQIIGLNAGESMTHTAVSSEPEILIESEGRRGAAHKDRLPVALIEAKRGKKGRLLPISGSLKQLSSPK
Procedure: as §1

T1 sequence (P48371 whole entry D95G): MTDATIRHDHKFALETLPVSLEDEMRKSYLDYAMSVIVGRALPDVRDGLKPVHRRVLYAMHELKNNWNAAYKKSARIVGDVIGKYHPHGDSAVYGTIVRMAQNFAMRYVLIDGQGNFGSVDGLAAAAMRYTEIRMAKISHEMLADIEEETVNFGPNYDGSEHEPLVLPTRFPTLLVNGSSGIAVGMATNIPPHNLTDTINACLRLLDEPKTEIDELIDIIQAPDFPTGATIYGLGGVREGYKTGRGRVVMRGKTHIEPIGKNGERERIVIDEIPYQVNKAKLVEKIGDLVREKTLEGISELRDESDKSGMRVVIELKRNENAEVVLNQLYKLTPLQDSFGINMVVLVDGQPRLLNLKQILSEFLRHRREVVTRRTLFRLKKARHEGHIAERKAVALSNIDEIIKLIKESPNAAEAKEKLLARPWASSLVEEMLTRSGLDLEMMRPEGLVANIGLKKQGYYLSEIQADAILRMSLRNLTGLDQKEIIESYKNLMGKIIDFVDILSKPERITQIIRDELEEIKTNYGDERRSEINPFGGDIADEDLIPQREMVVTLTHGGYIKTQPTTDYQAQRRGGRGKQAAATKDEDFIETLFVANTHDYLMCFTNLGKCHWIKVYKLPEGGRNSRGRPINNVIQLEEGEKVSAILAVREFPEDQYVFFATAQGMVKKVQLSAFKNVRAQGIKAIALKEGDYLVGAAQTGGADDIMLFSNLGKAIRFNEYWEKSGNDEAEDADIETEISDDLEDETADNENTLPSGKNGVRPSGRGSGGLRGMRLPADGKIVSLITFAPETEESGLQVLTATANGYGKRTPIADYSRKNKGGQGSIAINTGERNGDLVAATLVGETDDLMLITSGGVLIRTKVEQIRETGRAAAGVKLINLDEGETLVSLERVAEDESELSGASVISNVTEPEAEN
T1 sequence (P22118 whole entry partner): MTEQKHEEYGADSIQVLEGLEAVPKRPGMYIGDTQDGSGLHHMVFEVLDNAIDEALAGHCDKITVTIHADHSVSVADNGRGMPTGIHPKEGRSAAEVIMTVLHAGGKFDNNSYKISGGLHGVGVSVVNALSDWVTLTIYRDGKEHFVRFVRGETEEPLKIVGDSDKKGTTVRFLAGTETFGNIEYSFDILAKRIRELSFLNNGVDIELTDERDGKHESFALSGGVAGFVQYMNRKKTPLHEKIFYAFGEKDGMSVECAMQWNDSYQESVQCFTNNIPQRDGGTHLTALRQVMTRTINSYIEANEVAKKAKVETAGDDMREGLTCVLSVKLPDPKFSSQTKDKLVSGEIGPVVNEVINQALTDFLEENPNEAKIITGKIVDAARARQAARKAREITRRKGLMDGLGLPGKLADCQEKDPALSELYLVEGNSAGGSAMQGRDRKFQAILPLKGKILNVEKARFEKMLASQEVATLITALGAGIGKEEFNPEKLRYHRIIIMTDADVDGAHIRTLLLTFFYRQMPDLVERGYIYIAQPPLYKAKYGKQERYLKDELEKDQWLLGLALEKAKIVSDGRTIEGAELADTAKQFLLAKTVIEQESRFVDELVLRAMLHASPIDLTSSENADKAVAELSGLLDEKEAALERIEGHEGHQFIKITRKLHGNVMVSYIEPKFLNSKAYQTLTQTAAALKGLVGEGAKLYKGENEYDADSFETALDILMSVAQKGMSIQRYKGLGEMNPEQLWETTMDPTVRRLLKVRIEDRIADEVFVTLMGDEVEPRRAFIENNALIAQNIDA
T2 sequence (P48371 whole entry S91F/D95G): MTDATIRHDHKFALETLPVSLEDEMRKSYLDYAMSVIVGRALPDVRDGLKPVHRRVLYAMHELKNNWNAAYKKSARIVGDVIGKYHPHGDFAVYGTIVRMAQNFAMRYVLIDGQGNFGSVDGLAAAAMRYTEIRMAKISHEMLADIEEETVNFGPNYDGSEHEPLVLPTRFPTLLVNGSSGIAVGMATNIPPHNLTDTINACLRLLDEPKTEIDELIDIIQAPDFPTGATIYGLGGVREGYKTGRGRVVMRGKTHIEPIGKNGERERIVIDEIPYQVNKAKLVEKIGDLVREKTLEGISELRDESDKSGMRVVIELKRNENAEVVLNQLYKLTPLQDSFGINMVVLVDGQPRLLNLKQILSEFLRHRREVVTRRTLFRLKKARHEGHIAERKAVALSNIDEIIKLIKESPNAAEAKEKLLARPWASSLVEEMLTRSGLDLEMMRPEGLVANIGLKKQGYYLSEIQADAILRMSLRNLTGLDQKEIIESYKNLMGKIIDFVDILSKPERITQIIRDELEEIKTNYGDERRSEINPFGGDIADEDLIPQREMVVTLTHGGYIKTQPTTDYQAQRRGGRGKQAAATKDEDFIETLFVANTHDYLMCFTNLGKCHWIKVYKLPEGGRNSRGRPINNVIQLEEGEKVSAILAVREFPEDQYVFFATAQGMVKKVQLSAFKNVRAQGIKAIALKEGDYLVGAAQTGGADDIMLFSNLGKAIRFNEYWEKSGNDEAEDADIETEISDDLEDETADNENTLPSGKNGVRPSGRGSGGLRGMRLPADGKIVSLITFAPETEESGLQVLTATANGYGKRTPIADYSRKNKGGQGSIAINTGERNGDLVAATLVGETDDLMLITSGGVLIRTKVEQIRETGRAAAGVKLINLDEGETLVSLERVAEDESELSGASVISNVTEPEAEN
T2 sequence (P22118 whole entry partner): as the sequence (P22118 whole entry partner) above

With `O=c1ccc2ncc(=O)n3c2n1C[C@H]3CN1CCC(NCc2cc3c(cn2)OCCC3)CC1` [gepotidacin] the “fold greater potency (IC50) against topoisomerase IV over gyrase” value [1] was roughly 2.8 fold, the “Adj-Max Cleavage, single-stranded DNA breaks” value [2] was 17.9% and the EC50 ([2]; GyrA D95G gyrase, read-out: CC50, single-stranded DNA cleavage) was 1300 nM. For the same compound, the “single-stranded DNA cleavage compared with WT gyrase” value ([2]; GyrA D95G vs WT) was “nearly indistinguishable”, the “Adj-Max Cleavage, single-stranded DNA breaks” value [3] was 3.9% and the EC50 ([3]; GyrA S91F/D95G gyrase, read-out: CC50, single-stranded DNA cleavage) was 800 nM. The “fold decrease of adjusted maximal DNA cleavage vs WT” value ([3]; GyrA S91F/D95G vs WT) was roughly 4.4 fold and the IC50 [4] was 1800 ± 1300 nM.

From article PMC12624743 (ACS Infectious Diseases, 2025)
